# System: human leukemia cell line K562
# Experiment: In vitro antitumor/anticancer testing (CCK-8), K562
# Format: cell-based
# Conditions: 48 h, read-out: Percent growth inhibition
# Procedure: Each of Tea Product 1 and Conventional Tea Product obtained in section A of this example was used to prepare test tea samples according to the method described below. A proper amount of the respective tea product was added into sterile water to prepare a stock solution with a concentration of 100 mg/mL, followed by using a membrane filter with a pore size of 0.22 μm to conduct vacuum filtration and sterilization. The resulting stock solution was diluted with a respective complete medium shown in Table 3 below to form test tea samples with different concentrations. In other words, the thus obtained test tea samples to be used for treating a respective cancer/tumor cell line shown in Table 3 were prepared using the same complete medium as that for the respective cancer/tumor cell line.
# Specifically, each of the aforesaid commercially available agents was subjected to the method described below to prepare comparative test samples. A proper amount of a respective commercially available agent was dissolved in phosphate-buffered saline (PBS) to prepare a stock solution with a concentration of 5 mg/mL, followed by using a membrane filter with a pore size of 0.22 μm to conduct vacuum filtration and sterilization. The resulting stock solution was diluted with a respective complete medium shown in Table 3 below to form comparative test samples with different concentrations. To be specific, the comparative test samples prepared from the respective commercially available agent have the concentrations shown in Table 2 below. The thus obtained comparative test samples to be used for treating a respective cancer/tumor cell line shown in Table 3 were prepared using the same complete medium as that for the respective cancer/tumor cell line.
# The cultivation of each cancer/tumor cell line is described as follows. […] Afterwards, a cell suspension having a cell density of 1.0×10^4 cells/mL was prepared.
# As experimental groups, the tumor/cancer cells of each cell line were treated with the test tea samples prepared from one or more of the tea products and the comparative test samples prepared from one or more of the commercially available agents as obtained in section B of this example (for more detailed information about the tea product(s) and the commercially available product (s) used to treat each cell line, please see Table 4 below). To be specific, 6 to 10 test tea samples prepared from the same tea product and having different concentrations, as well as 6 to 10 comparative test samples prepared from the same commercially available agent and having different concentrations, were utilized to treat the tumor/cancer cells of each cell line. For each experimental group, 6 repetitions of tumor/cancer treatment were performed. For the control group, 100 μL of PBS was added to a well containing the medium and the cancer/tumor cells of the respective cell line. For the blank group, 100 μL of PBS was added to a well containing a complete medium the same as that used for cultivation of the cancer/tumor cells of the respective cell line.
# After the treatment described above, cultivation was conducted in an incubator (37° C., 100% relative humidity, 5% CO2) for 48 hours. Subsequently, the liquid containing the medium and the sample in the well was removed, and a respective complete medium (shown in Table 3 above) containing 10% CCK-8 (Cell Counting Kit-8)(Dojindo Molecular Technologies, Inc., Cat. No. CK04-13) was added. Cultivation was performed in an incubator (37° C.) for 2 to 4 hours, followed by gently shaking.
smiles,measurement,setting,value
Cc1ccc(NC(=O)c2ccc(CN3CCN(C)CC3)cc2)cc1Nc1nccc(-c2cccnc2)n1 [Glivec],inhibition at 0.0184 µg/mL,0.0184 μg/mL,17.7%
same,inhibition at 0.0369 µg/mL,0.0369 μg/mL,35.7%
same,inhibition at 0.0737 µg/mL,0.0737 μg/mL,55.3%
same,inhibition at 0.1474 µg/mL,0.1474 μg/mL,66.2%
same,inhibition at 0.2949 µg/mL,0.2949 μg/mL,81.5%
same,inhibition at 0.5897 µg/mL,0.5897 μg/mL,88.9%
